# Test results published in patent US8168197B2, “External composition for skin containing Scrophularia buergeriana miq. extract and the use thereof for the skin moisturizing cosmetics” (Amorepacific Corporation, priority 2007, dated 2012).
# Tested on: human skin
# Test: Production of epidermal lipid (total ceramide) on human skin
# Format: in vivo
# Details: 5% test material, 20 μl on human forearm
# Protocol: In order to evaluate the effects of the Scrophularia buergeriana Miq. and Poria cocos Wolf extracts on an increase in the synthesis of lipid on the human skin, the following test was carried out. The composition of the test material consisted of 0.5% of Carbopol ETD 2020, 0.45% of TEA 0.45%, 5% test material and the balance of deionized water. On the forearm of each of 12 adult men and women, a region having a size corresponding to the size of a 50-ml polypropylene conical tube was marked, and then 20 μl of each of control groups, the Scrophularia buergeriana Miq. extract and the Scrophularia buergeriana Miq. extract/Poria cocos Wolf extract mixture was applied on the subjects. Herein, the subjects were divided into two groups, lipids were extracted from the subjects at day 3 and day 11 in the following manner, and the extracted lipid were analyzed. Specifically, the forearm was washed with service water, and then subjected to tape stripping one time with Scotch® 810 Magic tape. Then, 1 ml of a mixture of cyclohexane/ethanol (4:1) was added to the forearm using a 50-ml cut polypropylene conical tube as a reservoir and shaken for about 1 minute, and was then transferred into a fresh tube. […]
# After the TLC plate was developed, the size of each band was measured at a wavelength of 570 nm using a TLC Scanner-II densitometer (CAMAG). […]
structure (smiles),measurement,setting,value
OCC(O)CO [Glycerin],"production of ceramide relative to the untreated group taken as 100%, 3 days after treatment",3 days after treatment,102%
same,"production of ceramide relative to the untreated group taken as 100%, 11 days after treatment",11 days after treatment,94%
